Measured values from ChEMBL document CHEMBL1944579, “Discovery of a potent and orally bioavailable benzolactam-derived inhibitor of Polo-like kinase 1 (MLN0905)” (J Med Chem, 2012).

What was measured:
[1] = Drug uptake in tumor of nude mouse xenografted with human HT-29 cells at 50 mg/kg, po after 24 hrs; type: ADME, organism-based, Neoplasm; parameters: dose 50 mg/kg, route oral; details: read-out: Drug uptake
[2] = Drug uptake in tumor of nude mouse xenografted with human HT-29 cells at 50 mg/kg, po after 48 hrs; type: ADME, organism-based, Neoplasm; parameters: dose 50 mg/kg, route oral; details: read-out: Drug uptake
[3] = Drug uptake in tumor of nude mouse xenografted with human HT-29 cells at 50 mg/kg, po after 72 hrs; type: ADME, organism-based, Neoplasm; parameters: dose 50 mg/kg, route oral; details: read-out: Drug uptake
[4] = Cmax in Sprague-Dawley rat at 5 mg/kg, po; type: ADME, organism-based; parameters: dose 5 mg/kg, route oral; details: in vivo
[5] = Drug uptake in tumor of nude mouse xenografted with human HT-29 cells at 6.25 mg/kg, po after 72 hrs; type: ADME, organism-based, Neoplasm; parameters: dose 6.25 mg/kg, route oral; details: read-out: Drug uptake
[6] = Toxicity in po dosed nude mouse administered once daily; type: organism-based; details: in vivo
[7] = Oral bioavailability in nude NCR mouse at 12.5 mg/kg; type: ADME, organism-based; details: in vivo
[8] = Drug uptake in tumor of nude mouse xenografted with human HT-29 cells at 6.25 mg/kg, po after 24 hrs; type: ADME, organism-based, Neoplasm; parameters: dose 6.25 mg/kg, route oral; details: read-out: Drug uptake
[9] = Drug uptake in tumor of nude mouse xenografted with human HT-29 cells at 25 mg/kg, po after 72 hrs; type: ADME, organism-based, Neoplasm; parameters: dose 25 mg/kg, route oral; details: read-out: Drug uptake
[10] = Half life in Sprague-Dawley rat at 1 mg/kg, iv; type: ADME, organism-based; parameters: dose 1 mg/kg, route intravenous; details: in vivo
[11] = Drug uptake in tumor of nude mouse xenografted with human HT-29 cells at 25 mg/kg, po after 24 hrs; type: ADME, organism-based, Neoplasm; parameters: dose 25 mg/kg, route oral; details: read-out: Drug uptake
[12] = Cmax in nude NCR mouse at 12.5 mg/kg, po; type: ADME, organism-based; parameters: dose 12.5 mg/kg, route oral; details: in vivo
[13] = Half life in nude NCR mouse at 2 mg/kg, iv; type: ADME, organism-based; parameters: dose 2 mg/kg, route intravenous; details: in vivo
[14] = Plasma clearance in nude NCR mouse at 2 mg/kg, iv; type: ADME, organism-based; parameters: dose 2 mg/kg, route intravenous
[15] = Volume of distribution at steady state in Sprague-Dawley rat at 1 mg/kg, iv; type: ADME, organism-based; parameters: dose 1 mg/kg, route intravenous; details: in vivo, read-out: Vdss
[16] = Tmax in Sprague-Dawley rat at 5 mg/kg, po; type: ADME, organism-based; parameters: dose 5 mg/kg, route oral; details: in vivo
[17] = Toxicity in po dosed nude mouse administered qd for 1 day in a week; type: organism-based; details: in vivo
[18] = Volume of distribution at steady state in nude NCR mouse at 2 mg/kg, iv; type: ADME, organism-based; parameters: dose 2 mg/kg, route intravenous; details: in vivo, read-out: Vdss
[19] = Drug uptake in tumor of nude mouse xenografted with human HT-29 cells at 12.5 mg/kg, po after 48 hrs; type: ADME, organism-based, Neoplasm; parameters: dose 12.5 mg/kg, route oral; details: read-out: Drug uptake
[20] = Tmax in nude NCR mouse at 12.5 mg/kg, po; type: ADME, organism-based; parameters: dose 12.5 mg/kg, route oral; details: in vivo
[21] = Plasma clearance in Sprague-Dawley rat at 1 mg/kg, iv; type: ADME, organism-based; parameters: dose 1 mg/kg, route intravenous
[22] = Drug uptake in tumor of nude mouse xenografted with human HT-29 cells at 12.5 mg/kg, po after 72 hrs; type: ADME, organism-based, Neoplasm; parameters: dose 12.5 mg/kg, route oral; details: read-out: Drug uptake
[23] = Oral bioavailability in Sprague-Dawley rat at 5 mg/kg; type: ADME, organism-based; details: in vivo
[24] = Drug uptake in tumor of nude mouse xenografted with human HT-29 cells at 6.25 mg/kg, po after 48 hrs; type: ADME, organism-based, Neoplasm; parameters: dose 6.25 mg/kg, route oral; details: read-out: Drug uptake
[25] = Toxicity in po dosed nude mouse administered qd for 3 days in a week; type: organism-based; details: in vivo
[26] = Drug uptake in tumor of nude mouse xenografted with human HT-29 cells at 25 mg/kg, po after 48 hrs; type: ADME, organism-based, Neoplasm; parameters: dose 25 mg/kg, route oral; details: read-out: Drug uptake
[27] = Drug uptake in tumor of nude mouse xenografted with human HT-29 cells at 12.5 mg/kg, po after 24 hrs; type: ADME, organism-based, Neoplasm; parameters: dose 12.5 mg/kg, route oral; details: read-out: Drug uptake

**Q.** Which concentration at 24 h [1] does the source give for `Cc1ncc(CCCN(C)C)cc1Nc1ncc2c(n1)-c1ccc(Cl)cc1NC(=S)C2` here?
**A.** The concentration at 24 h was 1080 nM.

**Q.** What about the concentration at 48 h [2] of the same molecule?
**A.** The concentration at 48 h was 332 nM.

**Q.** What about the concentration at 72 h [3] of the same molecule?
**A.** The concentration at 72 h was 60.3 nM.

**Q.** Which Cmax [4] does the source give for `Cc1ncc(CCCN(C)C)cc1Nc1ncc2c(n1)-c1ccc(C(F)(F)F)cc1NC(=S)C2` here?
**A.** The Cmax was 335 nM.

**Q.** What about the concentration at 72 h [5] of the same molecule?
**A.** The concentration at 72 h was 98 nM.

**Q.** What about the MTD [6] of the same molecule?
**A.** The MTD was 12.5 mg/kg.

**Q.** What about the concentration at 24 h [1] of the same molecule?
**A.** The concentration at 24 h was 1470 nM.

**Q.** And the bioavailability [7]?
**A.** The bioavailability was 45%.

**Q.** What about the concentration at 24 h [8] of the same molecule?
**A.** Its concentration at 24 h is 239 nM.

**Q.** What about the concentration at 48 h [2] of the same molecule?
**A.** The concentration at 48 h was 476 nM.

**Q.** And the concentration at 72 h [9]?
**A.** The concentration at 72 h was 163 nM.

**Q.** And the concentration at 72 h [3]?
**A.** Its concentration at 72 h is 376 nM.

**Q.** And the half-life [10]?
**A.** Its half-life is 4.7 h.

**Q.** And the concentration at 24 h [11]?
**A.** Its concentration at 24 h is 920 nM.

**Q.** What about the Cmax [12] of the same molecule?
**A.** Its Cmax is 720 nM.

**Q.** And the half-life [13]?
**A.** Its half-life is 3.4 h.

**Q.** And the clearance [14]?
**A.** Its clearance is 41.7 mL/min/kg.

**Q.** And the Vd [15]?
**A.** The Vd was 10.2 L/kg.

**Q.** And the Tmax [16]?
**A.** The Tmax was 4 h.

**Q.** What about the MTD at 24 h [17] of the same molecule?
**A.** Its MTD at 24 h is 50 mg/kg.

**Q.** And the Vd [18]?
**A.** Its Vd is 6.2 L/kg.

**Q.** What about the concentration at 48 h [19] of the same molecule?
**A.** The concentration at 48 h was 353 nM.

**Q.** What about the Tmax [20] of the same molecule?
**A.** The Tmax was 4 h.

**Q.** And the clearance [21]?
**A.** Its clearance is 38.3 mL/min/kg.

**Q.** What about the concentration at 72 h [22] of the same molecule?
**A.** Its concentration at 72 h is 139 nM.

**Q.** And the bioavailability [23]?
**A.** The bioavailability was 72%.

**Q.** What about the concentration at 48 h [24] of the same molecule?
**A.** Its concentration at 48 h is 121 nM.

**Q.** And the MTD at 72 h [25]?
**A.** Its MTD at 72 h is 25 mg/kg.

**Q.** And the concentration at 48 h [26]?
**A.** Its concentration at 48 h is 369 nM.

**Q.** What about the concentration at 24 h [27] of the same molecule?
**A.** The concentration at 24 h was 339 nM.
